In the supplement of paper PMC10883282:
Counter-ions that a name gives are not always drawn. ± gives the standard deviation of the averaged measurements.

Tested on: VA-ES-BJ
Assay: relative viability vs DMSO control (72 h) (fraction); higher = more viable cells
In short: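 Serially diluted compound, 2.5 µl from source plates spanning 10 mM to 0.0002 mM, was added 24 h after sarcoma cell lines were seeded in 384-well plates at densities targeting 80–90% confluence. Plates then sat 72 h at 37 °C, 5% CO2, with 0.1% DMSO vehicle and a 5 µM positive control. Relative viability came from ATPLite as percent growth, averaged over up to triplicate wells, and was rescaled with 1 as full and 0 as none.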

SMILES | relative viability (0.00017 µM) | relative viability (0.00051 µM) | relative viability (0.00152 µM) | relative viability (0.00457 µM) | relative viability (0.01372 µM) | relative viability (0.04115 µM) | relative viability (0.1235 µM) | relative viability (0.3704 µM) | relative viability (1.111 µM) | relative viability (3.333 µM) | relative viability (10 µM)
CCCS(=O)(=O)Nc1ccc(F)c(C(=O)c2c[nH]c3ncc(-c4ccc(Cl)cc4)cc23)c1F [Vemurafenib] | 1.09 ± 0.048 | 1.08 ± 0.058 | 1.04 ± 0.063 | 1.06 ± 0.039 | 1.074 ± 0.0083 | 1.06 ± 0.042 | 1.09 ± 0.017 | 1.12 ± 0.056 | 1.12 ± 0.043 | 1.02 ± 0.042 | 0.769 ± 0.03
COCc1c(-c2cc3cc(C)cc(OC)c3s2)c2c(N)ncnn2c1CN1CCNC(=O)C1 [Rogaratinib] | 1.074 ± 0.0046 | 1.07 ± 0.037 | 1.05 ± 0.036 | 1.05 ± 0.021 | 1.06 ± 0.021 | 1.03 ± 0.042 | 1.04 ± 0.081 | 1.02 ± 0.075 | 1.02 ± 0.063 | 0.908 ± 0.087 | 0.568 ± 0.031
C=CC(=O)N1CCC([C@@H]2CCNc3c(C(N)=O)c(-c4ccc(Oc5ccccc5)cc4)nn32)CC1 [Zanubrutinib] | 1.02 ± 0.011 | 1.01 ± 0.012 | 1.01 ± 0.03 | 0.996 ± 0.039 | 0.982 ± 0.029 | 1.04 ± 0.028 | 0.997 ± 0.047 | 0.998 ± 0.054 | 0.95 ± 0.025 | 0.912 ± 0.048 | 0.836 ± 0.013
COc1cccc2c1C(=O)c1c(O)c3c(c(O)c1C2=O)C[C@@](O)(C(=O)CO)C[C@@H]3O[C@H]1C[C@H](N)[C@H](O)[C@H](C)O1 [Doxorubicin Hydrochloride] | 1.03 ± 0.017 | 1.06 ± 0.08 | 1.03 ± 0.05 | 0.99 ± 0.033 | 0.857 ± 0.064 | 0.629 ± 0.028 | 0.386 ± 0.016 | 0.164 ± 0.012 | 0.189 ± 0.0067 | 0.143 ± 0.035 | 0.126 ± 0.011
CC(C)NC(=O)C1CCC(n2c(NC(=O)c3ccc(F)cc3)nc3ccc(CN4CCC(C(C)(C)O)CC4)cc32)CC1 (centres undefined) [Belizatinib] | 1.05 ± 0.04 | 1.07 ± 0.059 | 1.05 ± 0.064 | 1.04 ± 0.018 | 1.08 ± 0.022 | 1.06 ± 0.046 | 1 ± 0.017 | 0.926 ± 0.014 | 0.658 ± 0.012 | 0.359 ± 0.012 | 0.164 ± 0.0087
COc1cc2/c(=N/c3ccc(Br)cc3F)nc[nH]c2cc1OCC1CCN(C)CC1 [Vandetanib] | 1.04 ± 0.044 | 1.04 ± 0.027 | 1.03 ± 0.043 | 1.05 ± 0.073 | 1.06 ± 0.022 | 1.1 ± 0.04 | 1.11 ± 0.029 | 1.11 ± 0.018 | 1.08 ± 0.02 | 0.93 ± 0.035 | 0.239 ± 0.0077
C[C@@H]1CCN(C(=O)CC#N)C[C@@H]1N(C)c1ncnc2[nH]ccc12 [Tofacitinib] | 1.052 ± 0.0034 | 1.07 ± 0.014 | 1.02 ± 0.037 | 1.06 ± 0.039 | 1.02 ± 0.035 | 1.02 ± 0.026 | 1.01 ± 0.019 | 1.01 ± 0.017 | 1 ± 0.036 | 0.9697 ± 0.0069 | 0.931 ± 0.018
Cn1cnc2c(F)c(Nc3ccc(Br)cc3F)c(C(=O)NOCCO)cc21 [Binimetinib] | 1.06 ± 0.011 | 1.09 ± 0.032 | 1.07 ± 0.037 | 1.02 ± 0.028 | 1.02 ± 0.044 | 0.966 ± 0.027 | 0.946 ± 0.071 | 0.921 ± 0.069 | 0.879 ± 0.046 | 0.794 ± 0.041 | 0.689 ± 0.058
Cc1nc(-c2cn3c(n2)-c2ccc(-c4cnn(C(C)(C)C(N)=O)c4)cc2OCC3)n(C(C)C)n1 [Taselisib] | 1.01 ± 0.045 | 1.01 ± 0.03 | 1.02 ± 0.071 | 0.971 ± 0.048 | 0.943 ± 0.038 | 0.844 ± 0.039 | 0.75 ± 0.06 | 0.616 ± 0.056 | 0.379 ± 0.013 | 0.293 ± 0.028 | 0.144 ± 0.15
